Reference: paper PMC10398712 (Journal of medicinal chemistry, 2023)
Where two headings read alike, the source gives them in different places. Marks after values point to notes of the source that are not given here. Residues, ends and D or L forms follow the SMILES beside them. *: point of attachment. Cbz = O=C(OCc1ccccc1)*

Columns and labels:
BRD4 = BRD4 (Homo sapiens, UniProt O60885); test: Western blot of BRD4; conditions: for effect of pretreatment on BRD4 degradation induced by 13: pretreated 1 h, then 13 for 3 h; for degradation of BRD4: 24 h
[1] = in-vivo in humans; cited from earlier work
[2] = in human blood; cited from earlier work
CRBN-DDB1 complex = CRBN-DDB1 complex (Homo sapiens, UniProt Q96SW2); test: fluorescence polarization; assay type: binding; conditions: for displacement of fluorescence probe (relative binding): single concentration of 1 μM, tested three times
IKZF3 = test: Western blot of IKZF3 in MV4; assay type: cell-based, human; conditions: MV4;11 cells, 10 and 1 μM, 24 h
GSPT1 = test: Western blot of GSPT1 in MV4; assay type: cell-based, human; conditions: MV4;11 cells, 10 and 1 μM, 24 h
[3] = ring opening hydrolysis stability in buffer with different pHs; assay type: physicochemical; conditions: for pH=1.0, ring opening hydrolysis, percent compound remaining: pH 1.0, after 24 h; for pH=7.4, ring opening hydrolysis, percent compound remaining: pH 7.4 buffer, after 24 h, 37°C
IKZF1 = test: Western blot of IKZF1 in MV4; assay type: cell-based, human; conditions: MV4;11 cells, 10 and 1 μM, 24 h
MV4;11 cells [4] = test: AlamarBlue cell viability; assay type: cell-based, human; conditions: 72 h
MV4;11 cells [5] = test: flow cytofluorimetric apoptosis analysis; assay type: cell-based, human; conditions: 48 h
MV4;11 cells [6] = test: flow cytofluorimetric cell cycle analysis; assay type: cell-based, human; conditions: 48 h
caspase 3 cleavage = test: Western blot of caspase 3 and cleaved caspase 3 in MV4; conditions: MV4;11 cells, 10 nM to 10 μM, 24 h
CRBN = conditions: cited from earlier work
[7] = cited from earlier work

Sequence of CRBN-DDB1 complex (Q96SW2 whole entry): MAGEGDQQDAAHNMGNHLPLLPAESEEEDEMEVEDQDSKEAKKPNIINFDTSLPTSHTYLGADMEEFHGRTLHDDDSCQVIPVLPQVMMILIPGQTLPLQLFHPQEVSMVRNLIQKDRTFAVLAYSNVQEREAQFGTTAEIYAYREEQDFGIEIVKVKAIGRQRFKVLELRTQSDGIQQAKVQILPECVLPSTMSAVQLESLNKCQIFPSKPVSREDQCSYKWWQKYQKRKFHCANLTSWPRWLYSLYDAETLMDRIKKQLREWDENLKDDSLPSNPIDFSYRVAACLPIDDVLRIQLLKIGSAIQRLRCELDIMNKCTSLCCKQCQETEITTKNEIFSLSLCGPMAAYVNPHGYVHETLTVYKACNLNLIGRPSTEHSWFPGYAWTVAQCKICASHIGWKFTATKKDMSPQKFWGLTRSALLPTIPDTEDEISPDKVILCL
Sequence of CRBN-DDB1 complex (Q16531 whole entry partner): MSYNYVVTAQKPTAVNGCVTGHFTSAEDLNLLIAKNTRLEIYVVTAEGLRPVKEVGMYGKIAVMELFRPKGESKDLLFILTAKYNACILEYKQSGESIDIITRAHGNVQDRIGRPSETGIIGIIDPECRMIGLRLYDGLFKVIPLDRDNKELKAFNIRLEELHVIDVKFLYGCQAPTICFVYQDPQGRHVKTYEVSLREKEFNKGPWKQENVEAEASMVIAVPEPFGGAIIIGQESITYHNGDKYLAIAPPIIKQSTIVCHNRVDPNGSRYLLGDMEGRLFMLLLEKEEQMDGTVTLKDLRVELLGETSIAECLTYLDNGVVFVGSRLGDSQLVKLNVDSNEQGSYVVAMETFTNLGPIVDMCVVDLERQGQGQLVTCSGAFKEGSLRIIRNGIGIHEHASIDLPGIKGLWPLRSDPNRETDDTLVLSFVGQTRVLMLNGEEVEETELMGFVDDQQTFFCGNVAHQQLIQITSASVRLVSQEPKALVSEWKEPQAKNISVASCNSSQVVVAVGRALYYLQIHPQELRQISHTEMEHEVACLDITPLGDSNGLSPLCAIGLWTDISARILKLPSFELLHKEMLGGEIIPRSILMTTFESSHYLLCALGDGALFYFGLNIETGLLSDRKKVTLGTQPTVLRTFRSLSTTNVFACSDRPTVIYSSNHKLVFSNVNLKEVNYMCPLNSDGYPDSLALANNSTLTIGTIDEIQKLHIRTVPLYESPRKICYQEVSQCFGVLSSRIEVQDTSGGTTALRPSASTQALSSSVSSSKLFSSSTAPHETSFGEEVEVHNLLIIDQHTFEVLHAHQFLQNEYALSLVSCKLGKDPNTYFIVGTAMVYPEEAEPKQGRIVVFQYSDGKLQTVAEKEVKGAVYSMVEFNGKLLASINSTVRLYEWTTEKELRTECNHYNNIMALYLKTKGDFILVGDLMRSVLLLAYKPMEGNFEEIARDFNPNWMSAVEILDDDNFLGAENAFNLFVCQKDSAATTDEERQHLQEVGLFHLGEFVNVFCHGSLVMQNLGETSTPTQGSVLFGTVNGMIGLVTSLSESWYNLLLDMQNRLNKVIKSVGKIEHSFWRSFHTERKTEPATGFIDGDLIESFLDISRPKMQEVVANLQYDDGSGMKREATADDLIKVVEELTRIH

NS(=O)(=O)OC[C@@H]1C[C@@H](n2ccc3c(N[C@H]4CCc5ccccc54)ncnc32)C[C@@H]1O [MLN4924, reference compound]
effect of pretreatment on BRD4 degradation induced by 13 (BRD4; MV4;11 cells): abolished the BRD4 degradation induced by 13

Cc1sc2c(c1C)C(c1ccc(Cl)cc1)=N[C@@H](CC(=O)NCCCC#Cc1cccc(N3CCC(=O)NC3=O)c1C)c1nnc(C)n1-2 [Compound 12C, (S)-2-(4-(4-chlorophenyl)-2,3,9-trimethyl-6H-thieno[3,2-f][1,2,4]triazolo[4,3-a][1,4]diazepin-6-yl)-N-(5-(3-(2,4-dioxotetrahydropyrimidin-1(2H)-yl)-2-methylphenyl)pent-4-yn-1-yl)acetamide]
degradation of BRD4 (BRD4; in MV4;11 and LNCAP, 1.0 and 0.1 μM): showed obviously BRD4 degradation activity

O=C1CCC(N2C(=O)c3ccccc3C2=O)C(=O)N1 (stereo not drawn) [thalidomide]
racemization half-life [1]: ~ 5.0 h | racemization half-life [2]: ~ 2.0 h

O=C1CCN(c2ccccc2O)C(=O)N1 [Compound 3A, 1-(2-hydroxyphenyl)dihydropyrimidine-2,4(1H,3H)-dione]
displacement of fluorescence probe (relative binding) (CRBN-DDB1 complex): almost completely lost the binding

COc1ccccc1N1CCC(=O)NC1=O [Compound 3C, 1-(2-methoxyphenyl)dihydropyrimidine-2,4(1H,3H)-dione]
displacement of fluorescence probe (relative binding) (CRBN-DDB1 complex): decreased the binding

Cc1ccccc1N1CCC(=O)NC1=O [Compound 3B, 1-(o-tolyl)dihydropyrimidine-2,4(1H,3H)-dione]
increase of affinity by ortho-Me relative to parent PDHU 2 (CRBN-DDB1 complex; FP assay): about 2.5 times

Cc1sc2c(c1C)C(c1ccc(Cl)cc1)=N[C@@H](CC(=O)NC1CCN(C(=O)COc3cccc(N4CCC(=O)N(C)C4=O)c3C)CC1)c1nnc(C)n1-2 [Compound 13NT, (S)-2-(4-(4-chlorophenyl)-2,3,9-trimethyl-6H-thieno[3,2-f][1,2,4]triazolo[4,3-a][1,4]diazepin-6-yl)-N-(1-(2-(2-methyl-3-(3-methyl-2,4-dioxotetrahydropyrimidin-1(2H)-yl)phenoxy)acetyl)piperidin-4-yl)acetamide]
degradation of BRD4 (BRD4; MV4;11 cells, several different concentrations): no degradation activity of BRD4 was observed

Cc1c(C#CCNC(=O)OC(C)(C)C)cccc1N1CCC(=O)NC1=O [Compound 6F, tert-butyl (3-(3-(2,4-dioxotetrahydropyrimidin-1(2H)-yl)-2-methylphenyl)prop-2-yn-1-yl)carbamate]
degradation of IKZF3 (IKZF3): do not induce the degradation | degradation of GSPT1 (GSPT1): do not induce the degradation | pH=1.0, ring opening hydrolysis, percent compound remaining [3]: >99^[g] % | pH=7.4, ring opening hydrolysis, percent compound remaining [3]: >99% | degradation of IKZF1 (IKZF1): do not induce the degradation

Cc1c(OCC(=O)N2CCCCC2)cccc1N1CCC(=O)NC1=O [Compound 9, 1-(2-methyl-3-(2-oxo-2-(piperidin-1-yl)ethoxy)phenyl)dihydropyrimidine-2,4(1H,3H)-dione]
effect of pretreatment on BRD4 degradation induced by 13 (BRD4; MV4;11 cells): abolished the BRD4 degradation induced by 13 | anti-proliferation activity (MV4;11 cells [4]; at up to 100 μM): did not show any anti-proliferation activity | degradation of IKZF3 (IKZF3): do not induce the degradation | degradation of GSPT1 (GSPT1): do not induce the degradation | pH=1.0, ring opening hydrolysis, percent compound remaining [3]: >99% | pH=7.4, ring opening hydrolysis, percent compound remaining [3]: >99% | degradation of IKZF1 (IKZF1): do not induce the degradation

CC(C)C[C@@H](C=O)NC(=O)[C@H](CC(C)C)NC(=O)[C@H](CC(C)C)NC(=O)OCc1ccccc1 [MG132, reference compound] (Cbz-Leu-Leu-Leu-aldehyde)
effect of pretreatment on BRD4 degradation induced by 13 (BRD4; MV4;11 cells): abolished the BRD4 degradation induced by 13

Cc1sc2c(c1C)C(c1ccc(Cl)cc1)=N[C@@H](CC(=O)NC1CCN(C(=O)COc3cccc(N4CCC(=O)NC4=O)c3C)CC1)c1nnc(C)n1-2 [Compound 13, (S)-2-(4-(4-chlorophenyl)-2,3,9-trimethyl-6H-thieno[3,2-f][1,2,4]triazolo[4,3-a][1,4]diazepin-6-yl)-N-(1-(2-(3-(2,4-dioxotetrahydropyrimidin-1(2H)-yl)-2-methylphenoxy)acetyl)piperidin-4-yl)acetamide]
cell apoptosis (MV4;11 cells [5]): induced cell apoptosis in a dose-dependent manner | cell cycle effect (MV4;11 cells [6]): induce G1 phase arrest, decrease the cell population in S phase | caspase 3 cleavage (caspase 3 cleavage): successful in inducing caspase 3 cleavage

CCNC(=O)COc1cccc(N2CCC(=O)NC2=O)c1C [Compound 10, 2-(3-(2,4-dioxotetrahydropyrimidin-1(2H)-yl)-2-methylphenoxy)-N-ethylacetamide]
degradation of IKZF3 (IKZF3): do not induce the degradation | degradation of GSPT1 (GSPT1): do not induce the degradation | pH=1.0, ring opening hydrolysis, percent compound remaining [3]: >99% | pH=7.4, ring opening hydrolysis, percent compound remaining [3]: >99% | degradation of IKZF1 (IKZF1): do not induce the degradation

CC(=O)NCCC#Cc1cccc(N2CCC(=O)NC2=O)c1C [Compound 11, N-(4-(3-(2,4-dioxotetrahydropyrimidin-1(2H)-yl)-2-methylphenyl)but-3-yn-1-yl)acetamide]
degradation of IKZF3 (IKZF3): do not induce the degradation | degradation of GSPT1 (GSPT1): do not induce the degradation | pH=1.0, ring opening hydrolysis, percent compound remaining [3]: >99% | pH=7.4, ring opening hydrolysis, percent compound remaining [3]: >99% | degradation of IKZF1 (IKZF1): do not induce the degradation

Nc1cccc2c1CN(C1CCC(=O)NC1=O)C2=O (stereo not drawn) [Lenalidomide, lenalidomide, reference compound]
pH=1.0, ring opening hydrolysis, percent compound remaining [3]: >99% | pH=8.8, ring opening hydrolysis, percent compound remaining ([3]; pH 8.8, after 24 h): 0%

O=C1CC[C@H](N2C(=O)c3ccccc3C2=O)C(=O)N1 (single isomer, unassigned) [(S)-enantiomeric thalidomide]
binding affinity to CRBN relative to the (R)-enantiomer (CRBN): at least 10 fold

[2H]C1(N2C(=O)c3ccccc3C2=O)CCC(=O)NC1=O (stereo not drawn) [Compound 1D]
racemization relative to thalidomide [7]: about five times slower than thalidomide

Cc1sc2c(c1C)C(c1ccc(Cl)cc1)=N[C@@H](CC(=O)OC(C)(C)C)c1nnc(C)n1-2 [JQ1, reference compound]
anti-proliferation activity (MV4;11 cells [4]): weaker anti-proliferation activity than 13, but higher activity than compound 13NT
